In patent US8492614B2, “Plant biochemical systems and uses thereof” (The Board of Trustees of the University of Illinois, priority 2007, dated 2013):

Tested on: etiolated soybean seedlings
Experiment: Soybean seedlings irradiated with low fluence UV, grown with or without phenylalanine in the growth media
Format: in vivo, soybean (Glycine max L.)
Details: for protection from the effects of high energy UV (lack of seed development, seed death): 1 mM phenylalanine in growth media, low fluence 300, 305, 311 or 317 nm on day 3 after planting
Source text: Three varieties, Williams, Forrest, and Williams 82, serve as the progenitor germplasms used in many US soybean breeding programs. These germplasms were used in the experiments described in the Examples, and representative data is shown. In general soybean experiments are done using etiolated seedlings irradiated 3 days after planting or 7 days after planting, in contrast to the regime (6 days dark growth) used for Arabidopsis experiments. For the soybean experiments we have used a high intensity light source filtered through narrow band pass for a low fluence radiation dose of (10^4 μmol m^−2), with (10 nm half band width) filters of peak pass-through at 300, 305, 311, 317, 325, 332 and 368 nm. Soybean primary leaves are sensitive to UV, with the greatest damage occurring in response to irradiation with the greatest energy (smallest wavelength). Three day old etiolated wild type Williams, Forest and Williams 82 soybean seedlings of were individually irradiated with a single low fluence pulse of 300, 305, 311, 317, 325, 332, 368 nm or no light (as a control). After irradiation seedlings were maintained in a summer day-night cycle (14 hr white light: 10 hr dark) to allow for photoreactivation and other forms of light mediated repair until day 8. Irradiation with 300, 305 or 311 nm light results in a “severe” damage with a greater then 70% mortality rate by day 8 (FIGS. 9,10). Irradiation with 317 or 325 nm results in a ‘moderate’ response, with a mortality of approximately 20%. […] Seedlings irradiated with 300, 317 or 368 nm light, or no UV light (as a control) were assessed 3, 7, 14, 21 and 28 days post planting. […] The very young seedlings were able to use the phenylalanine in the growth media to supplement the limiting amounts available in the seed to produce a larger quantity of UV screening pigments, and perhaps other compounds important to UV protection, thereby protecting themselves against the UV itself and perhaps enacting enhanced repair functions after the UV irradiation. […]

## N[C@@H](Cc1ccccc1)C(=O)O [phenylalanine]
1.0 mM Phe in growth media, seven d post-irradiation
  growth characteristics after UV irradiation: restores growth characteristics regardless of UV wavelength
  protection from the effects of high energy UV (lack of seed development, seed death): able to ameliorate the most negative of the effects of high energy UV
Listed as Phe
  protection from the effects of high energy UV (lack of seed development, seed death): can overcome the most deleterious effects of high energy UV in soybean
